Experimental data reported in patent publication US20160257997A1, “METHODS FOR WHOLE-CELL ANALYSIS OF GRAM-POSITIVE BACTERIA” (AdvanDx, Inc., priority 2009, published 2016).
{Biotin} = biotin label at the PNA N-terminus, attached through the O linker (8-amino-3,6-dioxaoctanoic acid); {PacBlue} = Pacific Blue dye label at the PNA N-terminus, attached through the O linker; {TAMRA} = TAMRA (TAM) fluorescent label at the PNA N-terminus

Experiments:
[1] = tested on: MecA; test: PNA FISH with tyramide signal amplification (Example 4); format: cell-based, S. aureus; conditions: MRSA 33591, oxacillin-induced; 500 nM total; streptavidin-HRP, AlexaFluor 594-labeled tyramide; FIG. 4
Description: Cell fixation and permeabilization was also performed as described in Example 1 except that prior to hybridization the slides were treated at 80° C. for 5 minutes with 75 μL of TE buffer (Tris-HCl 100 mM, EDTA, 10 mM, pH 8.0). For hybridization, 25 μL of HB** containing five biotin-labeled PNA probes (Probes 11, 12, 13, 14 and 15 (concentration of each probe was 100 nM for a total concentration of 500 nM) was applied on one slide. Another slide was probed with one biotin-labeled, C. albicans—specific rRNA-directed probe (probe 10, concentration 500 nM) in control experiment. Hybridization and washing were performed as described in Example 1. Slides were then processed with reagents commercially available from Molecular Probes (TSA Kit #25, Eugene, Oreg.) according to manufacturer's protocol. Specifically, slide-deposited cells were first incubated 30 min with 0.075 mL of Blocking Buffer (BB) then 30 min with 0.1 mL of streptavidin-HRP diluted in BB. After washing (3×5 min wash) with PBS-Tween, the cells were incubated 10 min with 0.075 mL of AlexaFluor 594-labeled tyramide solution and washed (3×5 min wash) again. A drop of MM and cover slip was then applied on air dried slides and the cells were examined by FM. […]

[2] = tested on: rRNA; test: PNA FISH with rRNA-directed probes on S. epidermidis cells (Example 3); conditions: MRSE 51625 in mixture with MRSA 43300
Description: In this example a mixture of MRSA 43300 and MRSE 51625 was prepared and examined using three fluorescent filters as described below. The growth and oxacillin induction of S. aureus cells was performed as described in Example 1. […] S. epidermidis was grown essentially as described for S. aureus in Example 1. Cell fixation and permeabilization of both MRSA 43300 and MRSE 51625 was performed as described in Example 1.
The remainder of the procedure was performed as described in Example 1. These images are of the same section of the slide. In each case, only the fluorescence filter was changed.

[3] = tested on: rRNA; test: PNA FISH with rRNA-directed probes on S. aureus cells (Examples 2-3); format: cell-based
Text: Some (but not all) of the visible colonies in the slides are surrounded by a circle (slide A) or a square (Slide B). This should assist in analysis of the slides where black and white copies of the Figures are provided in lieu of color copies. In Image A-1 and A-2, the same colonies are encircled to simplify the comparison. The conditions for each of the slides examined in FIG. 2, are as follows: • A-1) MRSA 43300, Dual band filter • B-1) MSSA 29213, Dual band filter • A-2) MRSA 43300, FITC filter • B-2) MSSA 29213, FITC filter

[4] = tested on: MecA mRNA; test: PNA FISH of MecA mRNA in permeabilized S. aureus (Examples 1-3); format: cell-based; conditions: MRSA 43300, oxacillin-induced; FIG. 1 Slides B-D; Probes 1-5 794 nM combined, Probe 2 750 nM, Probe 6 750 nM

Substance: AGAGAGCAGCATCCA (all peptide nucleic acid (PNA), 5' {Biotin}; peptide nucleic acid FISH probe, chemically synthesized) [Probe 10, Biotin-labeled C. albicans-specific rRNA-directed PNA probe, control]
- fluorescent staining of bacteria after tyramide signal amplification [1]: absence of visible bacteria

Substance: TAM-GCTTCTCGTCCGTTC (all peptide nucleic acid (PNA), 5' {TAMRA}; peptide nucleic acid FISH probe; listed as Staphylococcus aureus) [Probe 8, TAMRA-labeled S. aureus-specific rRNA-directed PNA probe]
- fluorescent staining of bacteria (dual band filter) ([2]; FIG. 3 Image A): no TAMRA signal
- fluorescent staining of bacteria (dual band filter) ([3]; MRSA 43300 and MSSA 29213, 500 nM, FIG. 2 Slides A-1 and B-1): Red fluorescent stained bacteria
- fluorescent staining of bacteria (dual band filter) ([3]; MRSA 43300 in mixture with MRSE 51625, FIG. 3 Image A): red fluorescence

Substance: TCAATGAGCAAAGGT (all peptide nucleic acid (PNA); fluorescein label, position not given here; listed as Escherichia coli) [Probe 6, Flu-labeled E. coli specific rRNA-directed PNA probe, control]
- fluorescent staining of bacteria (FITC filter) [4]: No signal was observed

Substance: TCCTCGTCTGTTCGC (all peptide nucleic acid (PNA), 5' {PacBlue}; peptide nucleic acid FISH probe, chemically synthesized; listed as Staphylococcus epidermidis) [Probe 9]
- fluorescent staining of bacteria (DAPI filter) ([2]; 500 nM, FIG. 3 Image B): Blue stained MRSE bacteria are visible
